From US11667651B2, “Aminopyridine derivatives as phosphatidylinositol phosphate kinase inhibitors” (HiberCell, Inc., priority 2017, dated 2023)

Tests used:
Assay type in all cases: biochemical
[1] = target: T1, PIP4K2B (Homo sapiens, UniProt P78356); experiment: Trans-FI P kinase assay PIP4K2B (Table 4); conditions: compounds listed under IC50 bins; read-out: Trans-FI P kinase assays: PIP4K2B IC50
T1 construct: made in house; host or cells: E. coli
T1 sequence (P78356 1-416): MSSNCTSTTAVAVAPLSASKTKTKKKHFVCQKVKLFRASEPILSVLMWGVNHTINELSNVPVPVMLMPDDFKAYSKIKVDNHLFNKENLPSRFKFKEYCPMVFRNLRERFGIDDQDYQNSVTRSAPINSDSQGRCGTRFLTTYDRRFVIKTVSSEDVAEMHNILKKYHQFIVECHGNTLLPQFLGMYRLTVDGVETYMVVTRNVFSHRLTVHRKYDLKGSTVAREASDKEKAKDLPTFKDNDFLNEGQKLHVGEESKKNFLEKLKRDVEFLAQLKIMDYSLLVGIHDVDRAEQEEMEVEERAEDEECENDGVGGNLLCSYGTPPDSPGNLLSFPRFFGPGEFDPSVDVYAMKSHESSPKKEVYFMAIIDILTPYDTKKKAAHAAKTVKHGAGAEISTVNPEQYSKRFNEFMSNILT
Procedure, shortened: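 Transcreener FI detection (Ex 584/Em 623) of GDP, converted via calibration curve, gives IC50 from residual activity versus log concentration (highest 4.8 μM). Reaction: 80 μM PI5P plus DOPE carrier, 100 μM GTP, 5 nM GST-tagged enzyme, pH 7.3 HEPES with MgCl2 and 5% DMSO, 2 h after 1 h enzyme-compound preincubation at 27° C.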

[2] = target: T2, PIP4K2A (Homo sapiens, UniProt P48426); experiment: ADP-glo kinase assay PIP4K 2A (Table 3); design: made in house; host or cells: E. coli; conditions: compounds listed under IC50 bins
T2 sequence (P48426 1-406): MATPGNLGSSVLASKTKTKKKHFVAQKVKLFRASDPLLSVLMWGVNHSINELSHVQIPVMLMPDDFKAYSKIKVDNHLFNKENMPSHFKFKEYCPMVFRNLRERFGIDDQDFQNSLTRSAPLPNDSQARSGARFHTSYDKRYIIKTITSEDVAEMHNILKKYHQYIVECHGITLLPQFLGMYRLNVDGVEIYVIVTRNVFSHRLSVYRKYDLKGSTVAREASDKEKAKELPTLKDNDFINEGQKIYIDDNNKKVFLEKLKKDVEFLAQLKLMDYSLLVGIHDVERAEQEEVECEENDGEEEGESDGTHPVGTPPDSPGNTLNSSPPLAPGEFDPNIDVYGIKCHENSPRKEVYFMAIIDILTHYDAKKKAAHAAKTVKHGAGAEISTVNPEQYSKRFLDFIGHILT
Procedure, shortened: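 Full-length PIP4K2A (4 nM in the mix) with 100 μM PI(5)P diC8 pre-incubated 15 min with compound in MOPS pH 7.2, 25 mM MgCl2; ATP added (60 μM solution), 1 h at RT. ADP formed read by ADP-Glo luminescence; 10-point curves versus DMSO controls fitted to IC50.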

[3] = target: T2, PIP4K2A; experiment: Kinase Assay PIP4K2 A (Table 2); design: 4 nM PIP4K2A (full length protein, SignalChem); purchased SignalChem; conditions: compounds listed under IC50 bins
Procedure, shortened: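 Full-length PIP4K2A (4 nM in the added mix, with 100 μM PI(5)P diC8) pre-incubated 15 min at RT with compounds (10-point, 3-fold series) in 20 mM MOPS pH 7.2, 25 mM MgCl2, 0.005% Tween 20. ATP added from a 60 μM solution, 1 h at RT; ADP-Glo luminescence, IC50 fitted from % inhibition versus DMSO.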

Row | Structure (SMILES) | IC50 [1] [µM] | IC50 [2] [µM] | IC50 [3] [µM]
1 | O=C1CCCN1c1ccc(-c2ccc(Nc3cnc4c(c3)N(C(=O)CO)CCO4)nc2)cc1 [Example 235, 1-(4-(6-((1-(2-hydroxyacetyl)-2,3-dihydro-1H-pyrido[2,3-b][1,4]oxazin-7-yl)amino)pyridin-3-yl)phenyl)pyrrolidin-2-one] | 0.01 to 0.1 | 0.01 to 0.1 | 0.001 to 0.01
2 | O=C1C[C@@H](O)CN1c1ccc(-c2ccc(Nc3cnc4c(c3)N3C(=O)CC[C@H]3CO4)nc2)cc1 [Example 236, (S)-2-((5-(4-((R)-4-hydroxy-2-oxopyrrolidin-1-yl)phenyl)pyridin-2-yl)amino)-6,6a,7,8-tetrahydro-9H-pyrido[2,3-b]pyrrolo[1,2-d][1,4]oxazin-9-one] | 0.01 to 0.1 | 0.1 to 1 | 0.1 to 1
3 | O=C1C[C@H](O)CN1c1ccc(-c2ccc(Nc3cnc4c(c3)N3C(=O)CC[C@H]3CO4)nc2)cc1 [Example 237, (S)-2-((5-(4-((S)-4-hydroxy-2-oxopyrrolidin-1-yl)phenyl)pyridin-2-yl)amino)-6,6a,7,8-tetrahydro-9H-pyrido[2,3-b]pyrrolo[1,2-d][1,4]oxazin-9-one] | > 1 | 0.1 to 1 | 0.1 to 1
4 | CC(C)(O)C(=O)N1CCOc2ncc(Nc3ccc(-c4ccc(N5CCCC5=O)cc4)cn3)cc21 [Example 238, 1-(4-(6-((1-(2-hydroxy-2-methylpropanoyl)-2,3-dihydro-1H-pyrido[2,3-b][1,4]oxazin-7-yl)amino)pyridin-3-yl)phenyl)pyrrolidin-2-one] | 0.01 to 0.1 | 0.001 to 0.01 | 0.001 to 0.01
5 | COc1cncc(C(=O)Nc2cncc(Nc3ccc(-c4ccc(N5CCCC5=O)cc4)cn3)c2)c1 [Example 239, 5-methoxy-N-(5-((5-(4-(2-oxopyrrolidin-1-yl)phenyl)pyridin-2-yl)amino)pyridin-3-yl)nicotinamide] | 0.01 to 0.1 | 0.01 to 0.1 | 0.001 to 0.01
6 | O=C(Nc1cncc(Nc2ccc(-c3ccc(N4CCCC4=O)cc3)cn2)c1)c1ccc(=O)[nH]c1 [Example 240, 6-oxo-N-(5-((5-(4-(2-oxopyrrolidin-1-yl)phenyl)pyridin-2-yl)amino)pyridin-3-yl)-1,6-dihydropyridine-3-carboxamide] | 0.01 to 0.1 | 0.1 to 1 | 0.01 to 0.1
7 | COCCC(=O)N1CCN(c2cncc(Nc3ccc(-c4ccc(N5CCCC5=O)cc4)cn3)c2)CC1 [Example 241, 1-(4-(6-((5-(4-(3-methoxypropanoyl)piperazin-1-yl)pyridin-3-yl)amino)pyridin-3-yl)phenyl)pyrrolidin-2-one] | 0.01 to 0.1 | 0.1 to 1 | 0.01 to 0.1

Further lines, results first:

Row | IC50 [1] [µM] | IC50 [2] [µM] | IC50 [3] [µM] | Structure (SMILES)
8 | 0.01 to 0.1 | 0.001 to 0.01 | 0.001 to 0.01 | CN(C)C(=O)c1ccc(-c2ccc(Nc3cnc4c(c3)N3C(=O)CC[C@H]3CO4)nc2)cc1 [Example 242, (S)-N,N-dimethyl-4-(6-((9-oxo-6a,7,8,9-tetrahydro-6H-pyrido[2,3-b]pyrrolo[1,2-d][1,4]oxazin-2-yl)amino)pyridin-3-yl)benzamide]
9 | 0.01 to 0.1 | 0.001 to 0.01 | 0.001 to 0.01 | O=C1CCCN1c1ccc(-c2ccc(Nc3cnc4c(c3)N3C(=O)CC[C@H]3CO4)nc2)cc1F [Example 246, (S)-2-((5-(3-fluoro-4-(2-oxopyrrolidin-1-yl)phenyl)pyridin-2-yl)amino)-6,6a,7,8-tetrahydro-9H-pyrido[2,3-b]pyrrolo[1,2-d][1,4]oxazin-9-one]
10 | 0.01 to 0.1 | 0.01 to 0.1 | 0.001 to 0.01 | CCO[C@H]1C[C@@H]1C(=O)Nc1cncc(Nc2ccc(-c3ccc(N4CCCC4=O)cc3)cn2)c1 [Example 252, (1S,2S)-2-ethoxy-N-(5-((5-(4-(2-oxopyrrolidin-1-yl)phenyl)pyridin-2-yl)amino)pyridin-3-yl)cyclopropane-1-carboxamide]
11 | 0.01 to 0.1 | 0.001 to 0.01 | 0.001 to 0.01 | CC1(C)C[C@H]2COc3ncc(Nc4ccc(-c5ccc(N6CCCC6=O)c(F)c5)cn4)cc3N2C1=O [Example 258, (S)-2-((5-(3-fluoro-4-(2-oxopyrrolidin-1-yl)phenyl)pyridin-2-yl)amino)-8,8-dimethyl-6,6a,7,8-tetrahydro-9H-pyrido[2,3-b]pyrrolo[1,2-d][1,4]oxazin-9-one]
12 | 0.01 to 0.1 | 0.01 to 0.1 | 0.001 to 0.01 | O=C1CCCN1c1ccc(-c2ccc(Nc3cnc4c(c3)N3C(=O)C(O)C[C@H]3CO4)nc2)cc1F (stereo partly drawn) [Example 267, (6aS)-2-((5-(3-fluoro-4-(2-oxopyrrolidin-1-yl)phenyl)pyridin-2-yl)amino)-8-hydroxy-6,6a,7,8-tetrahydro-9H-pyrido[2,3-b]pyrrolo[1,2-d][1,4]oxazin-9-one]
13 | 0.01 to 0.1 | 0.01 to 0.1 | 0.001 to 0.01 | O=C1CCCN1c1ccc(-c2ccc(Nc3cnc4c(c3)N3C(=O)C(O)C[C@H]3CO4)nc2)cc1 (stereo partly drawn) [Example 268, (6aS)-8-hydroxy-2-((5-(4-(2-oxopyrrolidin-1-yl)phenyl)pyridin-2-yl)amino)-6,6a,7,8-tetrahydro-9H-pyrido[2,3-b]pyrrolo[1,2-d][1,4]oxazin-9-one]
